Data taken from patent publication US12410157B2, “Compound useful as toll-like receptor 7 activation inhibitor” (TOYAMA PREFECTURAL UNIVERSITY, priority 2020, dated 2025).
“And” between values parts separate entries of the source, which are not always exact repeats. Identical values can stand only once.

Tests used:
[1] = test system: Cytochrome P450 (CYP), mouse liver microsomes; experiment: Metabolic stability (CYP) using mouse liver microsomes, HPLC; assay type: in vitro ADME; settings: for Area (%) of peak: LC-UV (220 nm)
Procedure: For CB-7, B2-24, and B2-5A, 10 mg/mL DMSO solution was used. Each chemical compound was diluted with acetonitrile to 0.1 mg/mL, which was used as the analytical standard. Mouse liver microsomal fractions were rapidly thawed in a warm bath at 37° C. and kept on ice. Reaction buffer containing CYP cofactor was prepared on ice and mixed with the microsomal fractions. The reaction solution was preincubated at 37° C. for 5 minutes, and then the test substance solution was added and mixed well by pipetting. The volume of the reaction solution was 200 μL and the final concentration of the test substance was 0.1 mg/mL. The reaction solution was incubated at 37° C. for 30 minutes or 2 hours, and the reaction was stopped by adding 3 times the volume of acetonitrile and vortexing. After the reaction was stopped, the samples were centrifuged, and each supernatant was separated and dried in an evaporator. 50 μL of 50% acetonitrile solution was added to each solidified sample, and each sample was re-dissolved by vortexing for 5 minutes. Each redissolved solution was centrifuged, and each supernatant was subjected to HPLC analysis using a HITACHI Lachrom ELITE (HITACHI) as a HPLC system and COSMOSIL 5C18-MS-II, 4.6 mmI.D.×150 mm (nacalai tesque Co.) as a column.
Metabolic stability analysis of CB-7 and B2-24-4-5A·HCOOH was performed by the method of Example 5.

[2] = Plasma concentration in mouse model of systemic lupus erythematosus after oral administration; assay type: in vivo; settings: NZBWF1 mice, 5 mg/kg orally
Procedure: Plasma concentrations of B2-24-4-5A·HCOOH were determined after oral administration of B2-24-4-5A·HCOOH in a mouse model of systemic lupus erythematosus (NZBWF1, 20 weeks old, female). 5 mg/kg of B2-24-4-5A·HCOOH was administered orally to NZBWF1 mice. After 0.5, 1, 2, 4, 8, 16, or 24 hours, blood was collected from NZBWF1 mice to prepare plasma. The concentration of B2-24-4-5A·HCOOH in the plasma was determined by LC/MS/MS.

[3] = test system: systemic lupus erythematosus model mice (NZBWF1); experiment: Therapeutic effect in mouse model of spontaneous systemic lupus erythematosus; assay type: in vivo
Procedure: Systemic lupus erythematosus model mice (NZBWF1, 20 weeks old, female, n=55) were divided into saline-administered group (control, n=25), B2-24-4-5A·HCOOH-administered group (n=10), B2-24-4·HCOOH-administered group (n=5) and HCQ-administered group (n=15). The saline-administered group received saline (100 l) orally once a day, every day; the B2-24-4-5A·HCOOH-administered group received 10 mg/kg of B2-24-4-5A·HCOOH (100 l) orally once a day, every day; the B2-24-4·HCOOH-administered group received 10 mg/kg of B2-24-4·HCOOH (100 l) orally once a day, every day; the HCQ-administered group received 10 mg/kg of HCQ (100 l) orally once a day, every day. Fifteen weeks after the start of treatment, urine was collected from surviving mice in the saline-administered group (control, n=17), B2-24-4-5A·HCOOH-administered group (n=10), B2-24-4·HCOOH-administered group (n=5), and HCQ-administered group (n=12), and the mice were euthanized. After euthanasia, blood was drawn from the abdominal aorta of the mice, and the kidneys and spleen were removed.
Mice that died of natural causes during the 15-week period from the start of treatment were counted as deaths, and survival analysis was performed using the Kaplan Meier method. Blood collected from the abdominal aorta of each mouse, excluding the deceased cases, was centrifuged and serum was prepared. Determination of urea nitrogen and creatinine levels in serum was entrusted to Oriental Yeast Co. Albumin levels in urine were determined by ELISA (used kit: Levis Urinary Albumin-Mouse (S-type) (trade name) (Fujifilm Wako Shibayagi Corporation)). The removed kidneys were fixed with 4% (w/v) paraformaldehyde, and immunohistochemical staining was entrusted to Morpho Technology, Inc. In PAS-stained kidney tissue sections, histological findings of 100 glomeruli were evaluated. For increased cells and substrate in the mesangial area, endothelial cell swelling and cellular infiltration of the capillary lumen (intratubular proliferation), and glomeruli with inflammatory crescents (extratubular proliferation), each of the 100 glomeruli was assigned a grade from grade 0 to grade 2 according to severity and scored on a 6-point scale.
FIG. 10F is a photograph showing C3 deposition in the glomeruli of a mouse (#1) in the saline-administered group, a mouse (#10) in the B2-24-4-5A·HCOOH-administered group, a mouse (#4) in the B2-24-4·HCOOH-administered group and a mouse (#14) in the HCQ-administered group. […] In the renal tissue sections of a mouse (#1) in the saline-administered group, findings of active glomerulonephritis such as diffuse mesangial and intratubular proliferation were observed. […] The plots in FIGS. 10B, 10C, and 10D show the data for each individual, each bold line is the mean of the group data, and each error bar standard error. Scale bars in FIGS. 10E and 10F represent 100 μm. […]

C=C(C)[C@@H]1CC[C@]2(COC(=O)C2)C[C@H]1c1ccc(CN2CCNCC2)cc1 [B2-24-4-5A·HCOOH]
Number of peaks detected by HPLC ([1]; Example 9): 6 | Area (%) of peak ([1]; Example 9, 0 h): 100% | Area (%) of peak ([1]; Example 9, incubation 0.5 h): 95.4% | Area (%) of peak ([1]; Example 9, incubation 2.0 h): 88.4% | Drug metabolism mainly by CYPs compared to CB-7 ([1]; words): significantly improved drug metabolism | Plasma level after 8 hours [2]: near-bottom level | concentration at 0.5 h ([2]; female, mouse, plasma, po, LC/MS/MS): 88.1 ng/mL | Surviving mice fifteen weeks after the start of treatment ([3]; 10 mg/kg orally once a day, groups started with n=10, n=5, n=15 (HCQ)): 10 | score ([3]; per mouse, histological score on a 6-point scale): 0.23 and 0.15 and 0.42 and 0.09 (2×) and 0.24 and 0.03 and 0.04 and 0.14 and 0.52 | Inside 0 ([3]; per mouse, of 100 glomeruli, endothelial cell swelling and cellular infiltration of capillary lumen, Grade 0): 99 (2×) and 100 (3×) and 78 and 96 and 94 and 97 and 74 | Inside 1 ([3]; per mouse, of 100 glomeruli, endothelial cell swelling and cellular infiltration of capillary lumen, Grade 1): 1 (2×) and 0 (3×) and 18 and 4 and 6 and 3 and 20 | Inside 2 ([3]; per mouse, of 100 glomeruli, endothelial cell swelling and cellular infiltration of capillary lumen, Grade 2): 0 (8×) and 4 and 6 | Outside 0 ([3]; per mouse, of 100 glomeruli, glomerulus with semilunar, Grade 0): 99 and 100 (9×) | Outside 1 ([3]; per mouse, of 100 glomeruli, glomerulus with semilunar, Grade 1): 1 and 0 (9×) | Outside 2 ([3]; per mouse, of 100 glomeruli, glomerulus with semilunar, Grade 2): 0 | Mes0 ([3]; per mouse, of 100 glomeruli, increase in cells and substrates in the mesangium region, Grade 0: None, 10 mg/kg orally, 15 weeks, 10 mg/kg): 80 (3×) and 86 (2×) and 92 (2×) and 97 and 96 and 94 | Mes1 ([3]; per mouse, of 100 glomeruli, mesangium region, Grade 1: Moderate or lower): 19 and 13 and 12 and 8 (2×) and 20 (2×) and 3 and 4 and 6 | Mes2 ([3]; per mouse, of 100 glomeruli, mesangium region, Grade 2: Moderate or higher): 1 (2×) and 2 and 0 (7×)
